Test results reported in patent publication US9340600B2 (Indiana University Research and Technology Corporation, priority 2012, dated 2016).
*1 amine or outer side, *2 acyl side, *3 side chain or, on linkers, in order; H or OH if unused. Where a SMILES comes first, the peptide text is derived from it. Side-chain parts run from the residue outwards. [ ]: non-standard residue; d: D form. The star is where a group is joined. γGlu = O=C(O)[C@H](CCC(=O)[*:2])N[*:1]; Met(O2) = CS(=O)(=O)CC[C@H](N)C(=O)O; Palmitoyl = CCCCCCCCCCCCCCCC(=O)*; Met(O) = CS(=O)CC[C@H](N)C(=O)O; Nle = CCCC[C@H](N)C(=O)O; Nva = CCC[C@H](N)C(=O)O; Aib = CC(C)(N)C(=O)O

Columns and labels:
Type in all cases: cell-based
GLP-1 receptor = target: T1, GLP-1 receptor (Homo sapiens, UniProt P43220); experiment: cAMP induction, firefly luciferase-based reporter assay in HEK293 cells co-transfected with GLP-1 receptor; details: EC50 at GLP-1 Receptor
T1 construct: expressed in transfected cells; host or cells: HEK293
T1 sequence (P43220 24-463): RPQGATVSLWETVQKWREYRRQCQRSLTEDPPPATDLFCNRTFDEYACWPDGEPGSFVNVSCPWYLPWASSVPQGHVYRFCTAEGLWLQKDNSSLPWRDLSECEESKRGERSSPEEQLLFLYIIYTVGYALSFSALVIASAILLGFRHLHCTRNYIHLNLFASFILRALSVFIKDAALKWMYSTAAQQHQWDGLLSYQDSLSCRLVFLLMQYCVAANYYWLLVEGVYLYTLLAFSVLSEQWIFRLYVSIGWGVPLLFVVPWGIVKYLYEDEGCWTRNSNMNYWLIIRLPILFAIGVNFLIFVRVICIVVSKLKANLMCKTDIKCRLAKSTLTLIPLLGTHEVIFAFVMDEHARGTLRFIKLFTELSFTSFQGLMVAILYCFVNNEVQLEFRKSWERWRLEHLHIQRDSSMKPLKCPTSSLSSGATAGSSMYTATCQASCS
Excerpt: (§1) This example describes an exemplary method of testing the biological activity of the peptides of the present disclosures, which method involves assaying cAMP synthesis.

glucagon receptor = target: T2, glucagon receptor (Homo sapiens, UniProt P47871); experiment: cAMP induction, firefly luciferase-based reporter assay in HEK293 cells co-transfected with glucagon receptor; details: EC50 at Glucagon Receptor
T2 construct: expressed in transfected cells; host or cells: HEK293
T2 sequence (P47871 26-477): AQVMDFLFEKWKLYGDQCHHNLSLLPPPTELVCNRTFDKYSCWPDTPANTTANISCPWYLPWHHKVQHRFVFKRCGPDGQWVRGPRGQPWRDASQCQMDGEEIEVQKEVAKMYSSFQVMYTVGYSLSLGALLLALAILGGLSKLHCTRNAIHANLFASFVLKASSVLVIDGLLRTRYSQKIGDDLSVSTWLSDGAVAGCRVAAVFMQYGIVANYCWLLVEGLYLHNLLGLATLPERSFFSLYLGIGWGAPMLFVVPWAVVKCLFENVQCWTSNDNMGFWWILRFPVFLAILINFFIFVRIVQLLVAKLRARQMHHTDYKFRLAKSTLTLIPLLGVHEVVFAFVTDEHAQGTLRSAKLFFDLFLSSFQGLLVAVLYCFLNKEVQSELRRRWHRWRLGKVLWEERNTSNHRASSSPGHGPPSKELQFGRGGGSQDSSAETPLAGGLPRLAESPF
Excerpt: as §1

GIP receptor = target: T3, GIP receptor (Homo sapiens, UniProt P48546); experiment: cAMP induction, firefly luciferase-based reporter assay in HEK293 cells co-transfected with GIP receptor; details: EC50 at GIP Receptor
T3 construct: expressed in transfected cells; host or cells: HEK293
T3 sequence (P48546 22-466): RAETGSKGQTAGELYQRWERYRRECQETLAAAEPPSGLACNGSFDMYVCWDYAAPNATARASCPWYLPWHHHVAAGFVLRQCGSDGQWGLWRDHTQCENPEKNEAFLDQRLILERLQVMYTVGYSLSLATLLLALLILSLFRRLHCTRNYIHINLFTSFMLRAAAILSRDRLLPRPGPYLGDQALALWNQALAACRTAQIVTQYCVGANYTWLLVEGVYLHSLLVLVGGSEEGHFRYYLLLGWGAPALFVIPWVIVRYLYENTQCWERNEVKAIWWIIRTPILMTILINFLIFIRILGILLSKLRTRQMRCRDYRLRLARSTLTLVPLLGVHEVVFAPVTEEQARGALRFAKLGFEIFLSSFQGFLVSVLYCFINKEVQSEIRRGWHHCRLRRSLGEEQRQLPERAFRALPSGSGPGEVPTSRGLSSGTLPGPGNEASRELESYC
Excerpt: as §1

[1] = Table 3, analogs of SEQ ID NO: 18 varying at position 3
[2] = Table 4, analogs of SEQ ID NO: 43 varying at position 3
[3] = Table 5, analogs of SEQ ID NO: 10

SMILES	EC50 (GLP-1 receptor; [1])	EC50 (glucagon receptor; [1])	EC50 (GIP receptor; [1])	other results
CCCCCCCCCCCCCCCC(=O)N[C@@H](CCC(=O)NCCCC[C@H](NC(=O)[C@H](CC(=O)O)NC(=O)[C@H](CO)NC(=O)[C@@H](NC(=O)[C@H](Cc1ccccc1)NC(=O)[C@@H](NC(=O)CNC(=O)[C@H](CCC)NC(=O)C(C)(C)NC(=O)[C@@H](N)Cc1c[nH]cn1)[C@@H](C)O)[C@@H](C)O)C(=O)N[C@@H](CO)C(=O)N[C@@H](CCCCN)C(=O)N[C@@H](Cc1ccc(O)cc1)C(=O)N[C@@H](CC(C)C)C(=O)N[C@@H](CCC(=O)O)C(=O)N[C@@H](CCC(=O)O)C(=O)N[C@@H](CCCNC(=N)N)C(=O)N[C@@H](C)C(=O)N[C@@H](C)C(=O)N[C@@H](CCC(N)=O)C(=O)N[C@@H](CCC(=O)O)C(=O)N[C@@H](Cc1ccccc1)C(=O)N[C@H](C(=O)N[C@@H](CCC(N)=O)C(=O)N[C@@H](Cc1c[nH]c2ccccc12)C(=O)N[C@@H](CC(C)C)C(=O)N[C@@H](CC(C)C)C(=O)N[C@@H](CCC(=O)O)C(=O)NCC(=O)NCC(=O)N1CCC[C@H]1C(=O)N[C@@H](CO)C(=O)N[C@@H](CO)C(=O)NCC(=O)N[C@@H](C)C(=O)N1CCC[C@H]1C(=O)N1CCC[C@H]1C(=O)N1CCC[C@H]1C(=O)N[C@@H](CO)C(N)=O)C(C)C)C(=O)O [compound 38] (H-H[Aib][Nva]GTFTSDK([γGlu-Palmitoyl])SKYLEERAAQEFVQWLLEGGPSSGAPPPS-NH2; N-terminus assumed)	2 pM	55 pM	4 pM	
CCCCCCCCCCCCCCCC(=O)N[C@@H](CCC(=O)NCCCC[C@H](NC(=O)[C@H](CC(=O)O)NC(=O)[C@H](CO)NC(=O)[C@@H](NC(=O)[C@H](Cc1ccccc1)NC(=O)[C@@H](NC(=O)CNC(=O)[C@H](CCCCNC(C)=O)NC(=O)C(C)(C)NC(=O)[C@@H](N)Cc1c[nH]cn1)[C@@H](C)O)[C@@H](C)O)C(=O)N[C@@H](CO)C(=O)N[C@@H](CCCCN)C(=O)N[C@@H](Cc1ccc(O)cc1)C(=O)N[C@@H](CC(C)C)C(=O)N[C@@H](CCC(=O)O)C(=O)N[C@@H](CCC(=O)O)C(=O)N[C@@H](CCCNC(=N)N)C(=O)N[C@@H](C)C(=O)N[C@@H](C)C(=O)N[C@@H](CCC(N)=O)C(=O)N[C@@H](CCC(=O)O)C(=O)N[C@@H](Cc1ccccc1)C(=O)N[C@H](C(=O)N[C@@H](CCC(N)=O)C(=O)N[C@@H](Cc1c[nH]c2ccccc12)C(=O)N[C@@H](CC(C)C)C(=O)N[C@@H](CC(C)C)C(=O)N[C@@H](CCC(=O)O)C(=O)NCC(=O)NCC(=O)N1CCC[C@H]1C(=O)N[C@@H](CO)C(=O)N[C@@H](CO)C(=O)NCC(=O)N[C@@H](C)C(=O)N1CCC[C@H]1C(=O)N1CCC[C@H]1C(=O)N1CCC[C@H]1C(=O)N[C@@H](CO)C(N)=O)C(C)C)C(=O)O [compound 39] (H-H[Aib]K(Ac)GTFTSDK([γGlu-Palmitoyl])SKYLEERAAQEFVQWLLEGGPSSGAPPPS-NH2; N-terminus assumed)	10 pM	543 pM	336 pM	
CCCCCCCCCCCCCCCC(=O)N[C@@H](CCC(=O)NCCCC[C@H](NC(=O)[C@H](CC(=O)O)NC(=O)[C@H](CO)NC(=O)[C@@H](NC(=O)[C@H](Cc1ccccc1)NC(=O)[C@@H](NC(=O)CNC(=O)[C@H](CCCC)NC(=O)C(C)(C)NC(=O)[C@@H](N)Cc1c[nH]cn1)[C@@H](C)O)[C@@H](C)O)C(=O)N[C@@H](CO)C(=O)N[C@@H](CCCCN)C(=O)N[C@@H](Cc1ccc(O)cc1)C(=O)N[C@@H](CC(C)C)C(=O)N[C@@H](CCC(=O)O)C(=O)N[C@@H](CCC(=O)O)C(=O)N[C@@H](CCCNC(=N)N)C(=O)N[C@@H](C)C(=O)N[C@@H](C)C(=O)N[C@@H](CCC(N)=O)C(=O)N[C@@H](CCC(=O)O)C(=O)N[C@@H](Cc1ccccc1)C(=O)N[C@H](C(=O)N[C@@H](CCC(N)=O)C(=O)N[C@@H](Cc1c[nH]c2ccccc12)C(=O)N[C@@H](CC(C)C)C(=O)N[C@@H](CC(C)C)C(=O)N[C@@H](CCC(=O)O)C(=O)NCC(=O)NCC(=O)N1CCC[C@H]1C(=O)N[C@@H](CO)C(=O)N[C@@H](CO)C(=O)NCC(=O)N[C@@H](C)C(=O)N1CCC[C@H]1C(=O)N1CCC[C@H]1C(=O)N1CCC[C@H]1C(=O)N[C@@H](CO)C(N)=O)C(C)C)C(=O)O [compound 40] (H-H[Aib][Nle]GTFTSDK([γGlu-Palmitoyl])SKYLEERAAQEFVQWLLEGGPSSGAPPPS-NH2; N-terminus assumed)	2 pM	68 pM	4 pM	
CCCCCCCCCCCCCCCC(=O)N[C@@H](CCC(=O)NCCCC[C@H](NC(=O)[C@H](CC(=O)O)NC(=O)[C@H](CO)NC(=O)[C@@H](NC(=O)[C@H](Cc1ccccc1)NC(=O)[C@@H](NC(=O)CNC(=O)[C@H](CCS(C)(=O)=O)NC(=O)C(C)(C)NC(=O)[C@@H](N)Cc1c[nH]cn1)[C@@H](C)O)[C@@H](C)O)C(=O)N[C@@H](CO)C(=O)N[C@@H](CCCCN)C(=O)N[C@@H](Cc1ccc(O)cc1)C(=O)N[C@@H](CC(C)C)C(=O)N[C@@H](CCC(=O)O)C(=O)N[C@@H](CCC(=O)O)C(=O)N[C@@H](CCCNC(=N)N)C(=O)N[C@@H](C)C(=O)N[C@@H](C)C(=O)N[C@@H](CCC(N)=O)C(=O)N[C@@H](CCC(=O)O)C(=O)N[C@@H](Cc1ccccc1)C(=O)N[C@H](C(=O)N[C@@H](CCC(N)=O)C(=O)N[C@@H](Cc1c[nH]c2ccccc12)C(=O)N[C@@H](CC(C)C)C(=O)N[C@@H](CC(C)C)C(=O)N[C@@H](CCC(=O)O)C(=O)NCC(=O)NCC(=O)N1CCC[C@H]1C(=O)N[C@@H](CO)C(=O)N[C@@H](CO)C(=O)NCC(=O)N[C@@H](C)C(=O)N1CCC[C@H]1C(=O)N1CCC[C@H]1C(=O)N1CCC[C@H]1C(=O)N[C@@H](CO)C(N)=O)C(C)C)C(=O)O [compound 41] (H-H[Aib][Met(O2)]GTFTSDK([γGlu-Palmitoyl])SKYLEERAAQEFVQWLLEGGPSSGAPPPS-NH2; N-terminus assumed)	2 pM	592 pM	67 pM	
CCCCCCCCCCCCCCCC(=O)N[C@@H](CCC(=O)NCCCC[C@H](NC(=O)[C@H](CC(=O)O)NC(=O)[C@H](CO)NC(=O)[C@@H](NC(=O)[C@H](Cc1ccccc1)NC(=O)[C@@H](NC(=O)CNC(=O)[C@H](CC[S+](C)[O-])NC(=O)C(C)(C)NC(=O)[C@@H](N)Cc1c[nH]cn1)[C@@H](C)O)[C@@H](C)O)C(=O)N[C@@H](CO)C(=O)N[C@@H](CCCCN)C(=O)N[C@@H](Cc1ccc(O)cc1)C(=O)N[C@@H](CC(C)C)C(=O)N[C@@H](CCC(=O)O)C(=O)N[C@@H](CCC(=O)O)C(=O)N[C@@H](CCCNC(=N)N)C(=O)N[C@@H](C)C(=O)N[C@@H](C)C(=O)N[C@@H](CCC(N)=O)C(=O)N[C@@H](CCC(=O)O)C(=O)N[C@@H](Cc1ccccc1)C(=O)N[C@H](C(=O)N[C@@H](CCC(N)=O)C(=O)N[C@@H](Cc1c[nH]c2ccccc12)C(=O)N[C@@H](CC(C)C)C(=O)N[C@@H](CC(C)C)C(=O)N[C@@H](CCC(=O)O)C(=O)NCC(=O)NCC(=O)N1CCC[C@H]1C(=O)N[C@@H](CO)C(=O)N[C@@H](CO)C(=O)NCC(=O)N[C@@H](C)C(=O)N1CCC[C@H]1C(=O)N1CCC[C@H]1C(=O)N1CCC[C@H]1C(=O)N[C@@H](CO)C(N)=O)C(C)C)C(=O)O (stereo partly drawn) [compound 42] (H-H[Aib][Met(O)]GTFTSDK([γGlu-Palmitoyl])SKYLEERAAQEFVQWLLEGGPSSGAPPPS-NH2)	1 pM	42 pM	6 pM	
CCCCCCCCCCCCCCCC(=O)N[C@@H](CCC(=O)NCCCC[C@H](NC(=O)[C@H](CC(=O)O)NC(=O)[C@H](CO)NC(=O)[C@@H](NC(=O)[C@H](Cc1ccccc1)NC(=O)[C@@H](NC(=O)CNC(=O)[C@H](CCC(N)=O)NC(=O)C(C)(C)NC(=O)[C@@H](N)Cc1c[nH]cn1)[C@@H](C)O)[C@@H](C)O)C(=O)N[C@@H](CO)C(=O)N[C@@H](CCCCN)C(=O)N[C@@H](Cc1ccc(O)cc1)C(=O)N[C@@H](CC(C)C)C(=O)N[C@@H](CC(=O)O)C(=O)N[C@@H](CCC(=O)O)C(=O)N[C@@H](CCCNC(=N)N)C(=O)N[C@@H](C)C(=O)N[C@@H](C)C(=O)N[C@@H](CCC(N)=O)C(=O)N[C@@H](CC(=O)O)C(=O)N[C@@H](Cc1ccccc1)C(=O)N[C@H](C(=O)N[C@@H](CCC(N)=O)C(=O)N[C@@H](Cc1c[nH]c2ccccc12)C(=O)N[C@@H](CC(C)C)C(=O)N[C@@H](CC(C)C)C(=O)N[C@@H](CCC(=O)O)C(=O)NCC(=O)NCC(=O)N1CCC[C@H]1C(=O)N[C@@H](CO)C(=O)N[C@@H](CO)C(=O)NCC(=O)N[C@@H](C)C(=O)N1CCC[C@H]1C(=O)N1CCC[C@H]1C(=O)N1CCC[C@H]1C(=O)N[C@@H](CO)C(N)=O)C(C)C)C(=O)O [compound 43] (H-H[Aib]QGTFTSDK([γGlu-Palmitoyl])SKYLDERAAQDFVQWLLEGGPSSGAPPPS-NH2)				EC50 (GLP-1 receptor; Table 1): 4 pM; EC50 (GLP-1 receptor; [2]): 10 pM; EC50 (GLP-1 receptor; [3]): 7 pM; EC50 (glucagon receptor; Table 1): 6 pM; EC50 (glucagon receptor; [2]): 5 pM; EC50 (glucagon receptor; [3]): 5 pM; EC50 (GIP receptor; Table 1): 5 pM; EC50 (GIP receptor; [2]): 4 pM; EC50 (GIP receptor; [3]): 18 pM
